Measurements as given in PMC3500438 (Organic letters, 2012).
“Also recorded” adds a separate entry of the source.

Assays:
[1] = test system: rat PDE4 (Rolipram); assay: rat Rolipram radioligand binding; set-up: species or system Wistar rat; conditions: for IC50: read-out: rat Rolipram IC50; for IC50 / Ki: Wistar rat brain, 1.8 nM [3H] rolipram, 1% DMSO, 60 min at 4 °C, 50 mM Tris-HCl, pH 7.4; for Ki: read-out: rat Rolipram Ki
[2] = biological target: 5-HT2B (Homo sapiens, UniProt P41595); assay: Lead Profiling screen radioligand binding, 5-HT2B
Chain of 5-HT2B (P41595 whole entry, species assumed): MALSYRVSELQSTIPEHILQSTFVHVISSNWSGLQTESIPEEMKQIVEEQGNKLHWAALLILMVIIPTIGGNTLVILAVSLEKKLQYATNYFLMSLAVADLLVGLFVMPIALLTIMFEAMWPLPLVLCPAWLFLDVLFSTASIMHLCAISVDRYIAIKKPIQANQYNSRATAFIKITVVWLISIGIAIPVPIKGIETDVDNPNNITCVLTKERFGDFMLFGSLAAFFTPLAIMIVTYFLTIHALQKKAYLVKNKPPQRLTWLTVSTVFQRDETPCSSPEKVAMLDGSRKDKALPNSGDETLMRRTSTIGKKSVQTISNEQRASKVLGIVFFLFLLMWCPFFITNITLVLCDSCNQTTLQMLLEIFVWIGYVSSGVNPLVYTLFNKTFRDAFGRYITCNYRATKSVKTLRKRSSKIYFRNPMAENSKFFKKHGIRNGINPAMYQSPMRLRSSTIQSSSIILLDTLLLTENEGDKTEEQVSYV

[3] = test system: 68 GPCRs, ion channels and transporters; assay: Lead Profiling screen; assay type: binding; conditions: 10 μM, 68 targets
[4] = test system: 97 kinases (both wild-type and mutants); assay: KINOMEscan panel; assay type: binding; conditions: 10 μM
[5] = cited from earlier work
[6] = test system: healthy cells; conditions: cited from earlier work

## Cc1nc2ccccc2c2cc[nH]c12 [compound 1, marinoquinoline A]
[1]; rat PDE4 (Rolipram) and human PDE4
  PDE4 activity (in words): inactive
[1]
  IC50: > 100 µM
  Ki: > 100 µM

## Nc1ncnc2c1ncn2Cc1nc2ccccc2c2cc[nH]c12 [compound 6, aplidiopsamine A]
[2]; 10 μM
  5-HT2B activity in radioligand binding panel: 62%
[2]; read-out: 5-HT2B Ki, full concentration-response-curve
  Ki: ~10 µM
[1]; 10 μM
  PDE4/Rolipram activity in radioligand binding panel: 74%
[1]
  IC50: 3.3 µM
  Ki: 1.2 µM
[3]
  ancillary pharmacology in Lead Profiling screen: activity at only two targets
[4]
  activity in KINOMEscan panel: uniformly inactive
[5]
  antimalarial activity: potent antimalarial agent
[6]
  toxicity to healthy cells / cytotoxicity: without toxicity to healthy cells; also recorded: not be cytotoxic
